Assay results: PubChem BioAssay (NCI)
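Growth conditions: 96-well plates. Treatment: test compound, 48 hours, 5 concentrations. Analysis: linear interpolation between bracketing concentrations; unreached endpoints set to highest concentration. GI50 = concentration required for 50% inhibition of growth. TGI: concentration producing complete growth inhibition.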

Key:
Test in all cases: inhibition of tumour cell growth, NCI panel, 48 h
[1] = system: KM12 colon
[2] = system: SF-539 CNS
[3] = system: EKVX NSCLC
[4] = system: UO-31 renal
[5] = system: UACC-257 melanoma
[6] = system: NCI-H522 lung
[7] = system: SF-268 CNS
[8] = system: SNB-75 CNS
[9] = system: TK-10 renal
[10] = system: LOX IMVI melanoma

Compound | GI50 [1] [µM] | TGI [1] [µM] | GI50 [2] [µM] | TGI [2] [µM] | GI50 [3] [µM] | TGI [3] [µM] | GI50 [4] [µM] | TGI [4] [µM] | GI50 [5] [µM] | TGI [5] [µM] | GI50 [6] [µM] | TGI [6] [µM] | GI50 [7] [µM] | TGI [7] [µM] | GI50 [8] [µM] | TGI [8] [µM] | GI50 [9] [µM] | TGI [9] [µM] | GI50 [10] [µM] | TGI [10] [µM]
Cc1nc2ccccn2c1NC(=O)NN1C(=O)CSC1c1ccc(Cl)cc1 (stereo not drawn) | > 100 | > 100 | > 100 | > 100 | > 100 | > 100 | > 100 | > 100 | > 100 | > 100 | > 100 | > 100 | > 100 | > 100 | > 100 | > 100 | > 100 | > 100 | > 100 | > 100
C[C@@H]1CC[C@H]2[C@@H](C)C(O)O[C@@H]3O[C@]4(C)CC[C@@H]1[C@]32OO4 (stereo partly drawn) | 0.213 | 8.78 | 0.868 | 14.2 | 0.65 | 17.2 | 0.375 | 2.31 | 0.748 | > 100 | 0.329 | 3.29 | 1.4 | > 62.7 | 2.54 | 15.6 | 0.854 | 9.64 | 0.309 | 0.973
CCOC(=O)c1oc2c(OC)ccc3c2c1CCC3 |  | > 100 |  | > 100 |  | > 100 |  | > 100 |  | 10.9 |  | > 100 |  | > 100 |  | > 100 |  | > 100 |  | > 100
Nc1nc(=O)n(C2CC(O)C(CO)O2)cc1F (stereo not drawn) | > 66.3 | > 100 | 0.00418 | < 0.0448 |  | > 100 |  | > 43.3 | > 100 | > 100 |  | > 100 | 0.00946 | > 100 |  | > 100 | > 100 | > 100 | 0.01 | > 100
CN(C)c1ccc(/C=C/C(=O)c2ccc(Nc3nc(Nc4ccc(F)cc4)nc(Nc4ccc(F)cc4)n3)cc2)cc1 | 19 | 75.2 | 19 | 44.6 | 19.9 | 83 | 15.2 | 40.4 | 22.5 | 90.9 | 16.2 | 58.4 | 24.9 | > 100 | 13.8 | 39 | 28.7 | > 100 | 19 | 50.7
O=C(O)C1C2C=CC(O2)C1C(=O)NCc1cccnc1 (stereo not drawn) |  | > 100 |  | > 100 |  | > 100 |  | > 100 |  | > 100 |  | > 100 |  | > 100 |  | > 100 |  | > 100 |  | > 100
Cc1nnc(C[C@@H]2C=C(c3ccc(Cl)cc3)c3ccccc3-n3c(C)nnc32)o1 | 6.25 | > 100 | 1.16 | 54.3 | 6.01 | > 100 | 0.0739 | 44.4 | 2.43 | > 100 | 0.578 | 32.4 | 13.1 | 73.5 | 0.048 | 47.3 | 0.148 | 27.1 | 0.4 | 16
O=C(NCCCCCCCCCCCCNC(=O)c1cnc2ccccc2n1)c1cnc2ccccc2n1 |  | > 100 |  | 36.8 |  | > 100 |  | 86.1 |  | > 100 |  | > 100 |  | > 100 |  | 49.3 |  |  |  | > 100
CC/C=C\C[C@H]1C/C=C2/C(=O)C=C[C@H]2C/C=C\CCCC(=O)O1 |  |  | 2.07 | 8.16 | 4.89 | 15.7 | 4.87 | 11.2 | 5.04 | 12 | 1.98 | 7.21 | 3.77 | 17.8 | 1.56 | 8.74 | 2.54 | 8.01 | 1.68 | 6.7
Cc1ccccc1NC(=O)CC1C(=O)Nc2ccccc2S1=O (stereo not drawn) |  |  |  | 94.3 |  | > 100 |  | > 100 |  | > 100 |  | > 100 |  | > 100 |  | 65.9 |  | > 100 |  | > 100
CCCCCC/C=C/C#CCCCCCCCC(=O)O |  | > 100 |  | > 100 |  | > 100 |  |  |  | > 100 |  | > 100 |  | > 100 |  | > 100 |  | > 100 |  | > 100
C=C1CCC2CC1C(C(=O)c1c[nH]c3ccccc13)=NC2(C)C (stereo not drawn) |  | > 100 |  | > 100 |  | > 100 |  | > 100 |  | > 100 |  | > 100 |  | > 100 |  | > 100 |  |  |  | > 100
Cc1c2cnccc2c(C)c2c1c1cc(O)ccc1n2C(C)C | 0.57 | 9.87 | 1.32 | 2.9 | 0.846 | 2.41 | 0.785 | 5.21 |  |  | 0.475 | 2.54 | 1.18 | 3.62 | 1.2 | 2.46 | 3.31 | 8.55 | 0.47 | 1.9
